Measured values: patent publication US7642239B2, “Inhibition of placenta growth factor (PLGF) mediated metastasis and/or angiogenesis” (Center for Molecular Medicine and Immunology, priority 2005, dated 2010)
Marks after values point to notes of the source that are not given here.

Columns and labels:
MDA-MB-231 [1] = test: Wound-healing (motility) assay, MDA-MB-231; type: cell-based, human; details: for Migrating cells: 18-24 h; for inhibition (block) of PlGF-stimulated motility / migration: soluble Flt-1 2 nM, PD98059 50 μM, Wortmannin 5 nM
Experimental: (§1) MCF-7, MDA-MB-23 1, and MDA-MB-468 breast tumor cell lines or HECs were seeded onto sterile glass coverslips in Petri dishes or six-well plates. When the cells were 70-80% confluent, the monolayers were scratched with a sterile plastic pipet tip.
(§2) Inhibitor concentrations were 50 μM PD98059 (PD98) (mitogen activated protein kinase-kinase 1 [MEK1] inhibitor), 5 nM Wortmannin (phosphatidyl inositol 3 kinase [PI3K] inhibitor), or human recombinant soluble Flt-1 (sFlt-1) (R&D Systems). […] Cells were pre-incubated with PD98 and Wortmannin for 15-30 min before addition of PlGF. Stained (Wright-Giemsa) and mounted coverslips were examined microscopically. Five to ten 100× fields were evaluated by counting the number of cells separated from the wound edges and which appeared to be migrating toward the center of the wound. Results are reported as the average number of cells migrating into the wound/100× field. In some cases data from separate experiments were combined to accommodate inclusion of various treatments in the tables.
(§3) Antibody concentration was 1 μg/ml. MEK1 inhibitor, PD98059 (PD98), 50 μM. PI3K inhibitor, Wortmannin, 5 nM. […] Values for antibody and inhibitor treatments were from separate experiments which included all relevant controls. […] UT denotes untreated controls. *P<0.01 (ANOVA) compared to UT; † P<0.02 (ANOVA) compared to PlGF only. ‡ P<0.001 (ANOVA) compared to PlGF only.

MCF-7 = test: Wound-healing (motility) assay, MCF-7; type: cell-based, human; details: for Migrating cells: 18-24 h
Experimental: as §1, §2, §3

MDA-MB-231 mfp tumor = test: Orthotopic mammary fat pad (mfp) MDA-MB-231 model; type: in vivo, SCID mice
Source text: MDA-MB-231, grown in tissue culture, was also implanted in the mammary fat pad (mfp) of SCID mice (3×10^6 cells, 4-5 mice/group). In this model, large pulmonary metastases are less likely to develop (Richert et al., Breast Cancer Res. 7:R819-27, 2005). Peptide treatment was commenced on day 5 after implantation, when small tumors were palpable in all mice (8 treatments). Three days after the final peptide treatment, tumors were removed and weighed. Lungs were harvested and examined microscopically for metastases, as described above.

PlGF = biological target: T1, PlGF (Homo sapiens, UniProt P49763); test: Free peptide binding ELISA (FLAG epitope probe), PlGF-coated wells; details: free peptide; BP3, BP4, BP3scr at up to 50 μM
T1 construct: purchased R&D Systems
T1 sequence (P49763 19-170 isoform P49763-3 limits assumed): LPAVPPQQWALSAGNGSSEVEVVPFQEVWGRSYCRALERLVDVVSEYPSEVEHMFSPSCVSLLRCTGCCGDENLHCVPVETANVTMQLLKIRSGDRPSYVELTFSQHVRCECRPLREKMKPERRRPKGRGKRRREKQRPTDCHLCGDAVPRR
Experimental: (§4) Competition assays were done with 2.5 or 25 U/ml heparin (Sigma, St. Louis, Mo.). BP1, 3, 4, and a scrambled version of BP3 (scrBP3) were synthesized with a linker followed by the FLAG epitope ([…] SEQ ID NO:5) at the C-terminus. Thirty minutes after addition of the first reagent, the second reagent was added, followed by another 30 minute incubation. Peptide binding was assessed by probing for the FLAG epitope (Prickett et al., Biotechniques 7:580-9, 1989; Castrucci et al., J. Virol. 66:4647-53, 1992). Absorbance was read at 490 nm.

MDA-MB-468 = test: Wound-healing (motility) assay, MDA-MB-468; type: cell-based, human; details: for Migrating cells: 18-24 h
Experimental: as §1, §2, §3

[2] = system: MDA-MB-231 s.c. xenograft; test: Subcutaneous MDA-MB-231 xenograft growth and lung metastasis; type: in vivo, nude mice; details: subsequent experiment, start at 0.07-0.08 cm^3; 200 μg i.p.; mock 0.25
Experimental: The tissue-culture-grown human breast tumor cell line, MDA-MB-231, was implanted subcutaneously (s.c.) on the flanks of nude mice. When tumors were visible, the mice were weighed and the tumors measured. Treatment with peptides was begun when tumors averaged about 0.06-0.12 cm^3 in volume. Mice were treated with 200-μg peptide in PBS by i.p. injection at 3-4-day intervals for 4 weeks. Animals were weighed and the tumors measured at each treatment. In a second experiment, the control peptide, CPA, was included. Three days after the final treatment, tumors and lungs were harvested. Tumor burden of the lungs (from experiment 1) was determined by counting colonies (<20 cells), clusters (>20-100 cells), and nodules (>100 cells) seen in all the lung tissue on a total of 4 slides or sections for each mouse. Data are presented as the average number of each size of metastasis for each treatment group (3-4 mice/group). The total number of each was summed for each treatment group, and divided by the total number of mice in that group. The percent inhibition for metastasis was determined by the formula: % inhibition=(# mock-treated−# treated/# mock-treated)×100.
To test for therapeutic activity of the peptide, BP1, mice were implanted with human breast cancer cells, MDA-MB-231, which produces lung metastases spontaneously when implanted as a subcutaneous tumor. When the tumors averaged 0.12 cm^3 in volume, either mock-treatment or therapy with BP1 was initiated at 200 μg, two times per week for 4 weeks. […] In a subsequent experiment, treatment was commenced when tumors were 0.07-0.08 cm^3. After 4 weeks of treatment, as described, the mean volume of the mock- and CPA-treated tumors was 0.25 and 0.33 cm^3, respectively, whereas BP1-treated tumors averaged 0.04 cm^3 (P<0.05 BP1 vs. mock- or CPA-treated tumors) (FIG. 3A).

VEGF165 = biological target: T2, VEGF165 (Homo sapiens, UniProt P15692); test: Free peptide binding ELISA (FLAG epitope probe), VEGF-coated wells; details: ELISA-based binding assay
T2 construct: purchased R&D Systems
T2 sequence (P15692 27-191 isoform P15692-4): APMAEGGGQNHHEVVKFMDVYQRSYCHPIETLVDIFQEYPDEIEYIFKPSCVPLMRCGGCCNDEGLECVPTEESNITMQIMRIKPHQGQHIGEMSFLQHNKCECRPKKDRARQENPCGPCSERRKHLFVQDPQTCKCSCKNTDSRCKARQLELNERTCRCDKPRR
Experimental: as §4

[3] = biological target: T3, recombinant human Flt-1 fusion protein (Homo sapiens, UniProt P17948); test: Free peptide binding and competition ELISA, Flt-1-coated wells; details: ELISA-based binding assay
T3 construct: purchased R & D Systems
Experimental: as §4

MDA-MB-231 [4] = test: Matrigel cell invasion assay, MDA-MB-231; type: cell-based, human; details: 24 h
Experimental: Cellular invasion was determined by addition of 5×10^4cells to growth factor-reduced Matrigel invasion chambers (BD Biosciences Discovery Labware, Bedford, Mass.) (Taylor et al., 2003b; Passaniti et al., 1992, Lab Invest 67, 519-528). Additives to the Matrigel® plugs were pre-incubated together in a total volume of 100 μl PBS at RT for 10 min, after which each additive was added to the Matrigel. Growth factors (2.0 or 0.2 nM), peptide (2 μg/ml), or antibody (1 μg/ml) were added to cells in low serum (0.1% fetal bovine serum [FBS]) medium. Baseline and chemoattractant-based invasion (10% FBS) were included. The number of invading cells was determined by counting the number of cells on the bottom of the invasion chamber membrane after staining at 100× magnification after 24 h (MDA-MB-231) or 48 h (MCF-7, MDA-MB-468). The results of three to five separate experiments are presented.

MDA-MB-468 xenografts = type: in vivo, mice; details: 200 μg/dose i.p., twice-weekly, after 4 weeks
Experimental: FIG. 5. Treatment of mice bearing MDA-MB-468 xenografts with peptides BP1 or BP3. Mice were treated every 3-4 days with 200 ug BP as described in Methods. Tumor volume was measured 2×/week. *P<0.05 at days 10, 14, 17 and 24 (change in tumor volume (ANOVA)). FIG. 5A—tumors treated with binding peptide 1. FIG. 5B—tumors treated with binding peptide 3.
Mice bearing MDA-MB-468 xenografts (average tumor volume: 0.19 cm^3) were treated with i.p. injections of individual peptides (200 μg/dose) (FIG. 5). After 4 weeks of twice-weekly treatment, tumor growth was inhibited by 49% and 58% in mice treated with BP1 (FIG. 5A) or BP3 (FIG. 5B), respectively. The effect of BP3 on tumor growth was apparent after 2 weeks of treatment (FIG. 5B), whereas the inhibitory effect of BP1 was evident after one week (FIG. 5A). The average changes in individual tumor volumes during treatment with BP1 were significant (P<0.05) at days 10, 14, 17 and 24 (FIG. 5A). Treatment with BP2 was ineffective; tumors continued to grow at almost the same rate as the mock-treated controls (results not shown). BP4 treatment produced a 20% inhibition of tumor growth (results not shown).

[5] = PlGF 2 nM ± test agent, relative to PlGF-only value, unit assumed
[6] = growth factor PlGF 2 nM ± test agent (Flt-1 2 nM, peptide 2 μM, antibody 1 μg/ml, PD98059 50 μM, Wortmannin 5 nM)
[7] = VEGF 2 nM ± test agent, relative to VEGF-only value, unit assumed
[8] = growth factor VEGF 2 nM ± test agent
[9] = growth factor VEGF 2 nM ± test agent (peptide 2 μM, antibody 1 μg/ml)
[10] = growth factor PlGF 2 nM ± test agent (Flt-1 2 nM, peptide 2 μM, antibody 1 μg/ml)
[11] = PlGF 2 nM ± test agent, relative to PlGF-only value

T3 sequence (P17948 with tags, fused parts or gaps limits assumed): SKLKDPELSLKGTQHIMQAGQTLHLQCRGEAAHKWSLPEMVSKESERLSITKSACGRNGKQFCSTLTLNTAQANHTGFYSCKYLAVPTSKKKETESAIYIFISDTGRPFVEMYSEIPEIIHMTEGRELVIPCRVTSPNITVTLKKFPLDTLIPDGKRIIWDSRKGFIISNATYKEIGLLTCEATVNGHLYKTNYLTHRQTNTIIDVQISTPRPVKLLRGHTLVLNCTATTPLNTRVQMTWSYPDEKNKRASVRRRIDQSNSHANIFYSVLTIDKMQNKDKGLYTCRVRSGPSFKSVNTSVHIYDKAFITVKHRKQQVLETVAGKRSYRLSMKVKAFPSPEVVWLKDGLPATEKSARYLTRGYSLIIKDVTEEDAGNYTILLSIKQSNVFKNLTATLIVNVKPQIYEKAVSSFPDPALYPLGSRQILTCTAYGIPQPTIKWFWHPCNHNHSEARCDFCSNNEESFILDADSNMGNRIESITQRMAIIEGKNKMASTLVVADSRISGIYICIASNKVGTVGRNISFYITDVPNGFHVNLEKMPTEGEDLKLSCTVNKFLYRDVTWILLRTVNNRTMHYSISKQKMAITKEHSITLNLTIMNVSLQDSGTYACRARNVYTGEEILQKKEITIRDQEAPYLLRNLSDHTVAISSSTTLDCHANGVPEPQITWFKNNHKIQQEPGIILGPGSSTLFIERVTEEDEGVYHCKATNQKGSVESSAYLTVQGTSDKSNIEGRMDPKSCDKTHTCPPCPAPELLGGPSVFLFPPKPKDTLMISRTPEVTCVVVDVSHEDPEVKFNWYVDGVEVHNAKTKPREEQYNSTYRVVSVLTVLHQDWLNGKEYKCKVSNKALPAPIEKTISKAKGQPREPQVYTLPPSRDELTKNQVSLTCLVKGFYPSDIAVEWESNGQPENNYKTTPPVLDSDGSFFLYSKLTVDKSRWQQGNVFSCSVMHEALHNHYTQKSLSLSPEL

## COc1cccc(-c2cc(=O)c3ccccc3o2)c1N [PD98059, reference compound]
MDA-MB-231 [1]; [5]
  Relative activity: 43%
MDA-MB-231 [1]; [6]
  Migrating cells: 18.4 ± 8.0‡ cells/100× field
MDA-MB-231 [1]
  inhibition (block) of PlGF-stimulated motility / migration: 68%

## COC[C@H]1OC(=O)c2coc3c2[C@@]1(C)C1=C(C3=O)[C@@H]2CCC(=O)[C@@]2(C)C[C@H]1OC(C)=O [Wortmannin, reference compound]
MDA-MB-231 [1]; [5]
  Relative activity: 39%
MDA-MB-231 [1]; [6]
  Migrating cells: 16.4 ± 5.8‡ cells/100× field
MDA-MB-231 [1]
  inhibition (block) of PlGF-stimulated motility / migration: 72%

## CPA: control peptide derived by substituting A for the H, R and D residues in BP1 (SAAYALAIQLAASASSSSCV) [reference compound]
MCF-7; [7]
  Relative activity: 111%
MCF-7; [8]
  Migrating cells: 19.4 ± 8.9 cells/100× field
MDA-MB-231 [1]; [7]
  Relative activity: 121%
MDA-MB-231 [1]; antibody 1 μg/ml, peptide 2 μM
  effect on PlGF-stimulated motility (in words): had no effect
MDA-MB-231 [1]; [6]
  Migrating cells: 39.8 ± 10.6 cells/100× field
MDA-MB-231 [1]; [9]
  Migrating cells: 13.4 ± 4.5 cells/100× field
MDA-MB-231 mfp tumor; 8 peptide treatments, mock-treated 0.423±0.089
  tumor weight: 0.416 ± 0.083 g
MDA-MB-231 mfp tumor; lung, mock-treated 3.4±1.9
  micrometastasis counts per mouse: 2.8±1.3
PlGF
  binding to PlGF (in words): bound
MDA-MB-468; [7]
  Relative activity: 104%
MDA-MB-468; [10]
  Migrating cells: 21.6 ± 6.1 cells/100× field
MDA-MB-468; [8]
  Migrating cells: 14.6 ± 8.0 cells/100× field
[2]
  mean tumor volume after 4 weeks of treatment: 0.33 cm^3
VEGF165
  binding to VEGF (in words): bound
[3]
  attenuated affinity for Flt-1: 50%
MDA-MB-231 [4]; PlGF-stimulated invasion with added peptide
  invading cells, PlGF plus peptide: 35±17.3 cells

## QDDHLTTGR (listed as Homo sapiens) [BP2]
MDA-MB-468 xenografts
  tumor growth inhibition: ineffective

## VEGF
MCF-7; [8]
  Migrating cells: 12.7 ± 4.1 cells/100× field
MDA-MB-231 [1]; [9]
  Migrating cells: 11.1 ± 1.8 cells/100× field
MDA-MB-468; [8]
  Migrating cells: 14.0 ± 11.3 cells/100× field
MDA-MB-231 [4]; VEGF 2.0 nM or 0.2 nM
  invading cells: 10±8.0 cells

B1: Flt-1: human recombinant soluble Flt-1 (sFlt-1) (R&D Systems) (protein)
chain: SKLKDPELSLKGTQHIMQAGQTLHLQCRGEAAHKWSLPEMVSKESERLSITKSACGRNGKQFCSTLTLNTAQANHTGFYSCKYLAVPTSKKKETESAIYIFISDTGRPFVEMYSEIPEIIHMTEGRELVIPCRVTSPNITVTLKKFPLDTLIPDGKRIIWDSRKGFIISNATYKEIGLLTCEATVNGHLYKTNYLTHRQTNTIIDVQISTPRPVKLLRGHTLVLNCTATTPLNTRVQMTWSYPDEKNKRASVRRRIDQSNSHANIFYSVLTIDKMQNKDKGLYTCRVRSGPSFKSVNTSVHIYDKAFITVKHRKQQVLETVAGKRSYRLSMKVKAFPSPEVVWLKDGLPATEKSARYLTRGYSLIIKDVTEEDAGNYTILLSIKQSNVFKNLTATLIVNVKPQIYEKAVSSFPDPALYPLGSRQILTCTAYGIPQPTIKWFWHPCNHNHSEARCDFCSNNEESFILDADSNMGNRIESITQRMAIIEGKNKMASTLVVADSRISGIYICIASNKVGTVGRNISFYITDVPNGFHVNLEKMPTEGEDLKLSCTVNKFLYRDVTWILLRTVNNRTMHYSISKQKMAITKEHSITLNLTIMNVSLQDSGTYACRARNVYTGEEILQKKEITIRDQEAPYLLRNLSDHTVAISSSTTLDCHANGVPEPQITWFKNNHKIQQEPGIILGPGSSTLFIERVTEEDEGVYHCKATNQKGSVESSAYLTVQGTSDKSN
modifications: left off: large carriers
MCF-7; [11]
  Relative activity: 47
MCF-7; [10]
  Migrating cells: 10.4 ± 8.2† cells/100× field
MCF-7; soluble Flt-1 2 nM
  block of the stimulatory effect of PlGF on motility: 67%
MDA-MB-231 [1]; [11]
  Relative activity: 45
MDA-MB-231 [1]; [6]
  Migrating cells: 19.1 ± 8.0† cells/100× field
MDA-MB-231 [1]
  inhibition (block) of PlGF-stimulated motility / migration: 55%
MDA-MB-468; [11]
  Relative activity: 53
MDA-MB-468; [10]
  Migrating cells: 7.8 ± 5.9† cells/100× field
